conditions: not given

Point of comparison: O=c1ccc(=O)[nH][nH]1, log10 Koc (L/kg) 0.45. Against it:
- Cc1[nH]c(=O)n(C(C)(C)C)c(=O)c1Cl — higher, 1.66
- Cn1cc(-c2ccccc2)c(=O)c(-c2cccc(C(F)(F)F)c2)c1 — higher, 2.85

Point of comparison: Nc1ccn([C@@H]2O[C@H](COP(=O)(O)O)[C@@H](O)[C@@H]2O)c(=O)n1, melting point 233 °C. Against it:
- O=c1ccc(=O)[nH][nH]1 — higher, 306 °C
- BrCCCOc1ccccc1 — lower, 10.7 °C
- CC(C)Nc1nc(N)nc(Cl)n1 — lower, 133 °C
- CC(C(=O)O)c1ccc(C(=O)c2ccccc2)s1 (stereo not given) — lower, 96 °C
- O=C1c2ccccc2C(=O)C1C(=O)C(c1ccccc1)c1ccc(Cl)cc1 (stereo not given) — lower, 140 °C
- COCCCNc1nc(NCCCOC)nc(SC)n1 — lower, 55 °C
- O=[N+]([O-])c1ccc(CO)cc1 — lower, 96.5 °C
- CCN(CC)CCOC(=O)C(c1ccccc1)c1ccccc1 — lower, 114 °C
- c1ccc2c(c1)OCCOCCOCCOCCO2 — lower, 79 °C
- N#CC(CCc1ccc(Cl)cc1)(Cn1cncn1)c1ccccc1 (stereo not given) — lower, 125 °C
- COc1ccc(C)cc1OC — lower, 24 °C
- O=[N+]([O-])c1ccccc1I — lower, 54 °C
- Cc1cc(Cl)c(C)cc1Cl — lower, 71 °C
- CCN1CCN(c2cc3c(cc2F)c(=O)c(C(=O)O)cn3C2CC2)CC1 — lower, 220 °C
- CC(C)(C)N — lower, -72.7 °C
- O=C1C[C@@H]2OCC=C3CN4CC[C@]56c7ccccc7N1[C@H]5[C@H]2[C@H]3C[C@H]46 — higher, 287 °C
- COc1ccccc1C#N — lower, 24.5 °C
- Cc1[nH]c(=O)n(C(C)(C)C)c(=O)c1Cl — lower, 176 °C
- CCC(C)(CC)OC(N)=O — lower, 56 °C
- O=C(O)c1cc[n+]([O-])cc1 — higher, 270 °C
- Cc1cccc2ccc3ccccc3c12 — lower, 53.5 °C
- CCc1cccc(C)c1 — lower, -95.5 °C
- C[B]C — lower, -72.5 °C
- CCCCCCCCCCCCCCCCCCC(C)c1ccccc1 (stereo not given) — lower, 29 °C
- OC1CCCCCCCCCCC1 — lower, 77.5 °C
- CCCC(CC)C1(CC)C(=O)NC(=O)NC1=O (stereo not given) — lower, 122 °C
- CN(C)[C@@H]1C(O)=C(C(N)=O)C(=O)[C@@]2(O)C(O)=C3C(=O)c4c(O)cccc4[C@@](C)(O)[C@H]3[C@H](O)[C@@H]12 — lower, 184 °C
- CCN(CC)C(C)CN1c2ccccc2Sc2ccccc21 (stereo not given) — lower, 64.5 °C
- NC(=O)c1ccc(C(F)(F)F)cc1 — lower, 185 °C
- CC(C)C1CC1 — lower, -113 °C
- C1CCSSC1 — lower, 32.5 °C
- Cc1c[nH]cn1 — lower, 56 °C
- CCCCCc1ccc(C)cc1O — lower, 24 °C
- O=C(O)c1ccc(CBr)cc1 — lower, 230 °C
- FC(F)(F)C(F)(F)C(F)(F)C(F)(F)C(F)(F)C(F)(F)C(F)(F)C(F)(F)I — lower, 20.8 °C
- COc1ccc(O)cc1 — lower, 57 °C
- Nc1ncnc2c1ncn2[C@@H]1O[C@H](CO)[C@@H](O)[C@H]1O — higher, 246 °C
- O=C(O)c1cccc(C(=O)O)c1O — higher, 244 °C
- CC(CCC(=O)O)n1nnc2ccccc21 (stereo not given) — lower, 86 °C
- CC1(C)CC[C@]2(C(=O)O)[C@H](O)C[C@]3(C)C(=CC[C@@H]4[C@@]5(C)CC[C@H](O)[C@@](C)(C=O)[C@@H]5CC[C@]43C)[C@@H]2C1 — higher, 294 °C
- CC(C)(Oc1ccc(Cl)cc1)C(=O)OCc1cccnc1 — lower, 48.5 °C
- CC(=O)Oc1c[nH]c2ccccc12 — lower, 129 °C
- Clc1cnc(Cl)c(Cl)c1 — lower, 49 °C
- CCNc1ccc([N+](=O)[O-])cc1 — lower, 97 °C
- OCC(CO)(CBr)CBr — lower, 113 °C
- N=CNO — lower, 114 °C
- CCC(c1ccc(O)c(C)c1)C(CC)c1ccc(O)c(C)c1 (stereo not given) — lower, 145 °C
- Cn1cc(-c2ccccc2)c(=O)c(-c2cccc(C(F)(F)F)c2)c1 — lower, 154 °C
- Clc1cc2c(cc1Cl)Oc1ccccc1O2 — lower, 163 °C
- Clc1ccc2c(c1)oc1c(Cl)c(Cl)cc(Cl)c12 — lower, 190 °C
- CC1(C(=O)O)CCCCC1 — lower, 37.5 °C
- CC(=O)Cl — lower, -113 °C
- CC(=O)OC(C)C#N (stereo not given) — lower, -75 °C
- Clc1ccc(/N=N/c2ccccc2)cc1 — lower, 88 °C
- BrC(Br)C(Br)Br — lower, 0 °C
- Cc1cn([C@H]2C[C@H](O)[C@@H](CO)O2)c(=O)[nH]c1=O — lower, 186 °C
- CC(=O)Nc1ccc2c(c1)Cc1cc([N+](=O)[O-])ccc1-2 — higher, 262 °C
- CC(O)CN(CC(C)O)CC(C)O (stereo not given) — lower, 45 °C
- Clc1cc(Cl)c(-c2ccccc2)cc1Cl — lower, 76.3 °C
- C#CCC1(OC(N)=O)CCCCC1 — lower, 99 °C
- CC[C@H]1OC(=O)[C@H](C)C(=O)[C@H](C)[C@@H](O[C@@H]2O[C@H](C)C[C@H](N(C)C)[C@H]2O)[C@@H](C)C[C@@H](C)C(=O)C=C[C@]1(C)O — lower, 170 °C
- CC1=C(C(=O)O)N2C(=O)[C@@H](NC(=O)[C@H](N)C3=CCC=CC3)[C@H]2SC1 — lower, 140 °C
- Oc1c(Cl)cccc1Cl — lower, 68.5 °C
- O=[N+]([O-])c1c(O)c(Cl)cc(Cl)c1Cl — lower, 92.5 °C
- Cc1ccsc1/C=C/C1=NCCCN1C — higher, 240 °C
- C=C1CC[C@H](O)C/C1=C/C=C1\CCC[C@]2(C)[C@@H]([C@H](C)CCCC(C)C)CC[C@@H]12 — lower, 84.5 °C
- CCCCCCCCCF — lower, 1 °C
- CCC(C)(C)C(C)C — lower, -101 °C
- O=C1C(=Cc2ccccc2)CCCC1=Cc1ccccc1 — lower, 118 °C
- FC(F)(F)C1(F)C(F)(F)C(F)(F)C(F)(F)C(F)(C(F)(F)F)C1(F)F (stereo not given) — lower, -70 °C
- CCCCB(O)O — lower, 95 °C
- NC(=O)c1ncccc1O — lower, 195 °C
- Oc1c(Br)cccc1Br — lower, 56.5 °C

For O=c1ccc(=O)[nH][nH]1, the ready biodegradability was “readily biodegradable”.
In the case of COC(=O)CC(C)=O, the ready biodegradability is reported as “readily biodegradable”.
For CC(C)(C)N, the ready biodegradability was “not readily biodegradable”.
For Cc1[nH]c(=O)n(C(C)(C)C)c(=O)c1Cl, the ready biodegradability was “not readily biodegradable”.
With CNc1cccc(C)c1 the ready biodegradability was “not readily biodegradable”.
With CCCCCCCC/C=C\CCCCCCCC(=O)O the ready biodegradability was “readily biodegradable”.
With COc1ccc(O)cc1 the ready biodegradability was “readily biodegradable”.
In the case of Clc1cnc(Cl)c(Cl)c1, the ready biodegradability is reported as “not readily biodegradable”.
For OCC(CO)(CBr)CBr, the ready biodegradability was “not readily biodegradable”.
With N=C(N)N(c1ccccc1)c1ccccc1 the ready biodegradability was “not readily biodegradable”.
With Cn1cc(-c2ccccc2)c(=O)c(-c2cccc(C(F)(F)F)c2)c1 the ready biodegradability was “not readily biodegradable”.
In the case of CCCCCCCCCCCCCOP(Oc1ccccc1)Oc1ccccc1, the ready biodegradability is reported as “not readily biodegradable”.
For BrC(Br)C(Br)Br, the ready biodegradability was “not readily biodegradable”.
For CC(O)CN(CC(C)O)CC(C)O (stereo not given), the ready biodegradability was “not readily biodegradable”.
For Oc1c(Cl)cccc1Cl, the ready biodegradability was “not readily biodegradable”.

Point of comparison: CC(C)C1=CC(O)C(C)CC1 (stereo not given), boiling point 220 °C. Against it:
- C=CC(CC)c1ccccc1 (stereo not given) — lower, 192 °C
- CCOC(=O)CC(=O)C(F)(F)F — lower, 133 °C
- CCCC(CC)C(C)CC (stereo not given) — lower, 165 °C
- CCOCCl — lower, 83 °C
- COC(=O)CC(C)=O — lower, 172 °C
- COc1ccc(C)cc1OC — the same, 220 °C
- CC1CCCCCC1=O (stereo not given) — lower, 185 °C
- O=[N+]([O-])c1ccccc1I — higher, 290 °C
- CCOCC1CO1 (stereo not given) — lower, 128 °C
- COC(C)C — lower, 30.7 °C
- Cc1cc(Cl)c(C)cc1Cl — higher, 222 °C
- CC(C)(C)N — lower, 45 °C
- COc1ccccc1C#N — higher, 256 °C
- CNc1cccc(C)c1 — lower, 206 °C
- CCc1cccc(C)c1 — lower, 161 °C
- COC(=O)C(F)(F)F — lower, 43.2 °C
- C[B]C — lower, 70.5 °C
- CCCCCCCC/C=C\CCCCCCCC(=O)O — higher, 360 °C
- CC(C)C1CC1 — lower, 58.3 °C
- Cc1c[nH]cn1 — higher, 263 °C
- C[C@H](F)Cl — lower, 16.2 °C
- CCOC(=O)C(Cc1ccccc1)C(=O)OCC — higher, 300 °C
- FC(F)(F)C(F)(F)C(F)(F)C(F)(F)C(F)(F)C(F)(F)C(F)(F)C(F)(F)I — lower, 160 °C
- COc1ccc(O)cc1 — higher, 243 °C
- Clc1cnc(Cl)c(Cl)c1 — lower, 219 °C
- C[Si](C)(C)O[Si](C)(C)O[Si](C)(C)O[Si](C)(C)O[Si](C)(C)O[Si](C)(C)O[Si](C)(C)O[Si](C)(C)O[Si](C)(C)O[Si](C)(C)O[Si](C)(C)C — higher, 323 °C
- COc1ccc(S)cc1 — higher, 228 °C
- CC(C)C=CCO — lower, 159 °C
- CC1(C(=O)O)CCCCC1 — higher, 234 °C
- CC(=O)Cl — lower, 50.7 °C
- CC(=O)OC(C)C#N (stereo not given) — lower, 172 °C
- Cc1nccnc1C — lower, 156 °C
- BrC(Br)C(Br)Br — higher, 244 °C
- CC(C)OC(=O)[C@H](O)[C@@H](O)C(=O)OC(C)C — higher, 275 °C
- CCCCC(C)(O)CCC (stereo not given) — lower, 180 °C
- CC(O)CN(CC(C)O)CC(C)O (stereo not given) — higher, 305 °C
- CCOc1cccc(C)c1 — lower, 192 °C
- CCO[Si](CCC#N)(OCC)OCC — higher, 224 °C
- Oc1c(Cl)cccc1Cl — the same, 220 °C
- CCCCCCCCCF — lower, 168 °C
- CCC(C)(C)C(C)C — lower, 115 °C
- FC(F)(F)C1(F)C(F)(F)C(F)(F)C(F)(F)C(F)(C(F)(F)F)C1(F)F (stereo not given) — lower, 102 °C
- CC(=O)c1ccc(F)cc1 — lower, 196 °C
- Oc1c(Br)cccc1Br — higher, 255 °C
- C[C@H]1CC[C@@H]2[C@H](C1)C2(C)C — lower, 169 °C

Point of comparison: CCC(C)(CC)OC(N)=O, log10 vapour pressure (mmHg) -0.155. Against it:
- O=C1c2ccccc2C(=O)C1C(=O)C(c1ccccc1)c1ccc(Cl)cc1 (stereo not given) — lower, -9.12
- COC(=O)CC(C)=O — within 0.2 log units, -0.0496
- N#CC(CCc1ccc(Cl)cc1)(Cn1cncn1)c1ccccc1 (stereo not given) — lower, -7.43
- COC(C)C — higher, 2.78
- CC(C)(C)N — higher, 2.57
- Cc1[nH]c(=O)n(C(C)(C)C)c(=O)c1Cl — lower, -6.33
- CCc1cccc(C)c1 — higher, 0.483
- CCCCCCCC/C=C\CCCCCCCC(=O)O — lower, -5.85
- Cn1cc(-c2ccccc2)c(=O)c(-c2cccc(C(F)(F)F)c2)c1 — lower, -7.01
- Clc1cc2c(cc1Cl)Oc1ccccc1O2 — lower, -5.53
- CC(=O)Cl — higher, 2.46
- Clc1ccc(/N=N/c2ccccc2)cc1 — lower, -5.7
- BrC(Br)C(Br)Br — lower, -1.7
- Clc1cc(Cl)c(-c2ccccc2)cc1Cl — lower, -3.01
- Oc1c(Cl)cccc1Cl — lower, -1.48
- CCC(C)(C)C(C)C — higher, 1.43

Point of comparison: OC1CCCCCCCCCCC1, log10 Henry constant (atm·m³/mol) -5.53. Against it:
- Clc1cccc(-c2cc(Cl)ccc2Cl)c1 — higher, -3.7
- Clc1cc(Cl)c(-c2ccccc2)cc1Cl — higher, -3.7

Point of comparison: CC1CCC(C)C1 (stereo not given), log10 biodegradation half-life (days) 0.602. Against it:
- CCc1cccc(C)c1 — within 0.2 log units, 0.477
- CCC(C)(C)C(C)C — higher, 1.72

Point of comparison: Clc1cc2c(Cl)ccc(Cl)c2cc1Cl, log10 Koa 8.13. Against it:
- Clc1cc2c(cc1Cl)Oc1ccccc1O2 — higher, 8.5
- Clc1cc(Cl)c(-c2ccccc2)cc1Cl — within 0.2 log units, 8

same assay, conditions: fish

Point of comparison: OCC(CO)(CBr)CBr, log10 biotransformation half-life (days) -1.4. Against it:
- CCCCCCCCC(C)CCC (stereo not given) — higher, 0.98
- CNc1cccc(C)c1 — higher, -0.79
- Clc1cc2c(cc1Cl)Oc1ccccc1O2 — higher, 0.33
- Clc1cc(Cl)c(-c2ccccc2)cc1Cl — higher, 1.84

Point of comparison: Oc1c(Cl)cccc1Cl, log10 BCF 1.08. Against it:
- CNc1cccc(C)c1 — lower, 0.86
- OCC(CO)(CBr)CBr — lower, 0.68
- BrC(Br)C(Br)Br — lower, 0.74
- CC(O)CN(CC(C)O)CC(C)O (stereo not given) — lower, -0.24
- Clc1cc(Cl)c(-c2ccccc2)cc1Cl — higher, 3.78
